From paper PMC8050276, “Estradiol analogs attenuate autophagy, cell migration and invasion by direct and selective inhibition of TRPML1, independent of estrogen receptors” (Scientific Reports, 2021)
Values joined by “and” are separate entries in the source; they are usually repeats but may differ in a detail not shown here. Identical values can stand only once. “Also recorded” adds a separate entry of the source. Like-named read-outs stand apart in the source and are kept apart here.

Key:
hTRPML2-YFP = target: T1, hTRPML2-YFP (Homo sapiens, UniProt Q8IZK6); test: Fluo-4 Ca2+ influx assay, HEK293 stably expressing hTRPML2-YFP, activated with ML-SA1; format: cell-based
T1 construct: expressed in transfected cells
T1 sequence (Q8IZK6 1-566): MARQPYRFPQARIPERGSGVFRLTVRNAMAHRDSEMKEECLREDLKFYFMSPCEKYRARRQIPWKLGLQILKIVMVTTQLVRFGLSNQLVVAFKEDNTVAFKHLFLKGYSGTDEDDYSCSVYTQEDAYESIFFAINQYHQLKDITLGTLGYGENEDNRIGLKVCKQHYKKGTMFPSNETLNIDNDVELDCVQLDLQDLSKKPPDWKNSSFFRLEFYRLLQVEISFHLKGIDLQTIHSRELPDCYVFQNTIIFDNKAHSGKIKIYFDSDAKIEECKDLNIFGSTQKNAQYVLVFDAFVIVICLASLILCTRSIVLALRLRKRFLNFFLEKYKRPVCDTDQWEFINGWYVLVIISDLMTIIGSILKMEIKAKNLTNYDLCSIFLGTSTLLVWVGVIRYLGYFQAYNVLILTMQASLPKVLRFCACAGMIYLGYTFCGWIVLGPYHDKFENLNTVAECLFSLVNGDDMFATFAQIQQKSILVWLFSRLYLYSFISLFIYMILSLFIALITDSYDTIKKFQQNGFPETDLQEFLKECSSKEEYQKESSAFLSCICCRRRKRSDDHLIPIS

LC3 = test: Autophagy assay, LC3 immunoblot in human fibroblasts (Fed/Hbss, with bafilomycin A1); format: cell-based; conditions: Hbss starvation, with BafA1
Protocol: 5 × 10^4 wild-type human fibroblasts were seeded in a 12-well plate and treated overnight with DMSO or different TRPML1 inhibitors (EDME, PRU-10, PRU-12). The day after, cells were treated for 3 h in full media (Fed) or HBSS supplemented with 10 mM HEPES (nutrient starved) in presence of DMSO or different TRPML1 inhibitors (EDME, PRU-10, PRU-12). For autophagic flux experiments, cells were co-treated with 100 nM of bafilomycin A1 (Sigma).
Total cell lysates were prepared using TRIS HCl 10 mM pH 8.0 and 0.2% SDS supplemented with protein and phosphatase inhibitors (Sigma). Protein concentration was determined using the Bradford method. After SDS–polyacrylamide gel electrophoresis (PAGE) and immunoblotting, the protein recognized by the specific antibody was visualized by chemiluminescence methods (Luminata Crescendo Western HRP substrate, Millipore) using HRP-conjugated anti-rabbit or anti-mouse secondary antibodies (Cell Signalling). Images were acquired using Li-Cor Odyssey Fc Imaging System and densitometric quantification of unsaturated images was performed using ImageJ software (NIH). Uncropped and unprocessed western blot scans are provided as Fig. S1. The following primary antibodies were used: LC3 (Novus Cat. No. NB100-2220, 1:1000 in 5% milk), TFEB (Cell Signaling Cat. No. 4240, 1:1000 in 5% BSA) and β-actin (Santa Cruz Cat. No. Sc-47778, 1: 1000 in 5% BSA).

hTRPML1∆NC-YFP [1] = format: cell-based, human; conditions: for TRPML isoform selectivity profile: TRPML1, 2, 3 and TPC2, Fluo-4; for TRPML1:TRPML2 fold selectivity / TRPML1:TRPML3 fold selectivity: ratio of Fluo-4 IC50 values
Protocol: (§1) To identify inhibitors of TRPML1 and TRPML3, the Spectrum Collection compound library (MS Discoveries; 2000 compounds) and additional 430 bioactive compounds were screened. To this end, fluorometric Ca^2+ influx assays were performed by using the calcium dye Fluo-4/AM (Invitrogen, Thermo Fisher Scientific, Waltham, MA, USA) and a custom-made fluorescence imaging plate reader built into a robotic liquid handling station (Freedom Evo 150, Tecan, Männedorf, Switzerland). […] Screening compounds dissolved in DMSO (10 mM) were prediluted in 150 mM NaCl, 20 mM HEPES, pH 7.4, to a concentration of 200 µM. For primary screens, HEK293 stably expressing plasma membrane-targeted TRPML1 or TRPML3 were trypsinized and resuspended in cell culture medium supplemented with 4 µM Fluo-4/AM. After incubation at 37 °C for 30 min, the cell suspension was briefly centrifuged resuspended in HBS, and dispensed into black pigmented, clear-bottom 384-well microwell plates (Greiner μClear, Frickenhausen, Germany). Plates were placed into the FLIPR and fluorescence signals (excitation 470 nm, emission 515 nm) were recorded with a Zyla 5.5 camera (Andor, Belfast, UK) and the μManager software like previously described. In a first video, compound libraries were successively added to the cells with the Tecan 96-tip multichannel arm to a final concentration of 20 µM to map unspecific effects like autofluorescence or toxicity. In a second step the agonist ML-SA1 was pipetted in each well and fluorescence signals were recorded for 10 min. Analyses were done by calculating fluorescence intensities for each well and background areas with ImageJ (National Institutes of Health, Bethesda, MD, USA). Finally, the background was subtracted and the fluorescence intensities were normalized to initial intensities (F/F0). Concentration response curves were generated by the same procedure but compounds were manually prediluted in 96-well plates containing HBS, now supplemented with 0.1% bovine serum albumin. Here data was fitted to a four-parameter Hill equation to obtain Imin, Imax, IC50), and the Hill coefficient n.

hTRPML1∆NC-YFP [2] = target: hTRPML1∆NC-YFP (Homo sapiens, UniProt Q9GZU1); format: cell-based
Sequence of hTRPML1∆NC-YFP (Homo sapiens, UniProt Q9GZU1) (Q9GZU1 whole entry): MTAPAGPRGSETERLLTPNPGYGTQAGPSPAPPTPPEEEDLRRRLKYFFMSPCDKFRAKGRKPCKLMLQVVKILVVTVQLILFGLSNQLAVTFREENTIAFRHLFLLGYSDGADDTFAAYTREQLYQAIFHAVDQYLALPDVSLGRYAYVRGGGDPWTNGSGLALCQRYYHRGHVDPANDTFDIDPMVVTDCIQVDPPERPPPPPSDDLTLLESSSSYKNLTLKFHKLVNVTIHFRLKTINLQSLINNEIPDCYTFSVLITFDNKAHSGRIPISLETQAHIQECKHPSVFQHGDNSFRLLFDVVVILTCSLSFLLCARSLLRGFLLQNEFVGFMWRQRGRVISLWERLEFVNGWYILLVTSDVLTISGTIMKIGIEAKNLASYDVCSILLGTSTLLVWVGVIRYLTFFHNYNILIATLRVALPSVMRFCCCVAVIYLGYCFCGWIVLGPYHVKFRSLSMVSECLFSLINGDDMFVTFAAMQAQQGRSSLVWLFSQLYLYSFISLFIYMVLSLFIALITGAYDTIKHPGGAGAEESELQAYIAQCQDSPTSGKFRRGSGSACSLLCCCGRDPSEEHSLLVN
Protocol: as §1

[3] = TRPML2 IC50, Fluo-4, 5 µM ML-SA1, Table S1
[4] = read-out: TRPML1 IC50, Fluo-4, 5 µM ML-SA1, Fig. 2a/4, Table S1

SMILES | IC50 (hTRPML2-YFP; [3]) [µM] | concentration showing efficacy on autophagy (LC3) (LC3) [µM] | TRPML isoform selectivity profile (hTRPML1∆NC-YFP [1]) | TRPML1:TRPML2 fold selectivity (hTRPML1∆NC-YFP [1]) [fold] | TRPML1:TRPML3 fold selectivity (hTRPML1∆NC-YFP [1]) [fold] | IC50 (hTRPML1∆NC-YFP [2]; [4]) [µM] | IC50 (hTRPML2-YFP; Fluo-4, 5 µM ML-SA1, Table S1, read-out: TRPML2 IC50) | primary screen result (hTRPML1∆NC-YFP [1]; 20 µM compound, 5 µM ML-SA1, TRPML1 and TRPML3) | TRPML1 versus TRPML3 selectivity (hTRPML1∆NC-YFP [1]; Fluo-4, TRPML1 vs TRPML3, 5 µM ML-SA1) | inhibitory effect on TRPML1 (hTRPML1∆NC-YFP [2]; 12.5 µM compound, 5 µM ML-SA1, Fig. 1f) | IC50 (hTRPML1∆NC-YFP [2]; read-out: TRPML1 IC50, concentration-response retest of screening hits and steroids, Fluo-4, 5 µM ML-SA1, Fig. 1b-e, S1) [µM]
CC(=O)c1ccc2c(c1)CC[C@@H]1[C@@H]2CC[C@]2(C)[C@@H](O)CC[C@@H]12 [PRU-12] | 5.28 | 1 | further improved selectivity profile compared to EDME; also recorded: good TRPML isoform selectivity profile | 18.86 | 50.29 | 0.28 | – | – | – | – | –
C=Cc1ccc2c(c1)CC[C@@H]1[C@@H]2CC[C@]2(C)[C@@H](O)CC[C@@H]12 [PRU-10] | 5.4 | 3 | further improved selectivity profile compared to EDME; also recorded: good TRPML isoform selectivity profile | 13.17 | 38.61 | 0.41 | – | – | – | – | –
COc1ccc2c(c1)CC[C@@H]1[C@@H]2CC[C@]2(C)[C@@H](O)CC[C@@H]12 [EDME, 17β-estradiol methyl ether] | – | 1 | – | 9.14 | 30.47 | – | 5.85 µM and 5.9 µM | TRPML1 selective hit | highly TRPML1-selective | completely blocks TRPML1 | 0.5
